From US9073918B2, “Pyrazolo[4,3-b]pyridine-7-amine inhibitors of ALK5” (Takeda Pharmaceutical Company Limited, priority 2010, dated 2015) come the findings set out here.

Structures are written as SMILES. pIC50: −log10 of the molar value.

One may read the pIC50 as the negative decadic logarithm of the IC50, by convention in mol/L. A high value points to a low IC50.

One assay has as its target T1, TGF-β R1 ALK5 (Homo sapiens, UniProt P36897).
T1 construct: purchased Invitrogen PV5837
T1 sequence (P36897 34-503): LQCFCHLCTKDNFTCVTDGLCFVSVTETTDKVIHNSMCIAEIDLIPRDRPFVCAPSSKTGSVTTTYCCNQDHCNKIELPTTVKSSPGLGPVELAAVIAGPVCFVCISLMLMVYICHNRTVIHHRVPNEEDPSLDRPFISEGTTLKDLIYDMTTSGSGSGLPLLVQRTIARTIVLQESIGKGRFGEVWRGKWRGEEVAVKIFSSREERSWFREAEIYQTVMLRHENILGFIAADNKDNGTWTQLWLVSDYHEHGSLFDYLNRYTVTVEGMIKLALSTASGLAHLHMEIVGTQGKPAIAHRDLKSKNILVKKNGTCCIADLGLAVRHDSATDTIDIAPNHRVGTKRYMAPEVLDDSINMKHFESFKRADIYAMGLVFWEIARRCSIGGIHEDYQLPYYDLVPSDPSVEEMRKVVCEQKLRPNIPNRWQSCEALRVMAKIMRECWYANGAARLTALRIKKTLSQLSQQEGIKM
As to the kind of experiment: In vitro inhibition of ALK5 (LanthaScreen activity assay, TR-FRET). The format is biochemical. (TR-FRET usually uses a lanthanide donor and a delayed reading to cut background.)

A further assay has as its target T2, cellular TGF-β R1 ALK5 (Homo sapiens, UniProt P36897).
T2 construct: host or cells: CellSensor SBE-bla HEK 293T
T2 sequence (P36897 34-503): T1 sequence (P36897 34-503)
As to the kind of experiment: Cellular inhibition of ALK5 (CellSensor SBE-bla HEK 293T beta-lactamase reporter). In kind it is cell-based. The conditions noted are these: cellular inhibition of ALK5, SBE-bla HEK 293T cells, TGFb-1 stimulated 5 hours; average where measured in multiple experiments. The source says:
Test compounds were screened for cellular TGF-β R1 ALK5 inhibition by use of a CellSensor® SBE-bla HEK 293T (K1550, Invitrogen Corp. Madison, Wis.) cell line. The CellSensor® SBE-bla HEK 293T cell line contains a beta-lactamase reporter gene under control of the SBE response element stably integrated into HEK 293T cells. The SBE response element is a DNA region that binds activated SMADs which results from the binding of TGF-β to, and subsequent activation of ALK5.
The assay procedure was as follows:
CellSensor® SBE-bla HEK 293T cell line were plated at 12,000 cells/well in 40 ul DMEM plus 5 ug/ml blasticidin into 384-well, black-wall, clear-bottom assay plate and incubated overnight.
The following day 5 uL of 10×, 2.5-fold serially diluted test compounds in DMSO were added into cells to a final compound concentration of 1× and DMSO concentration of 0.5%. Assay was incubated for 1 hour at 37° C., 5% CO2, 5 uL of 100 ng/mL TGFb-1 was then added to activate ALK5 and incubated for 5 hours at 37° C., 5% CO2, 10 uL of detector, LiveBLAzer FRET B/G substrate (CCF4-AM, Invitrogen Corp. Madison, Wis.) was added to cells and incubated for 2 hours at RT. Assay was measured using Spectramax, a bottom-read fluorescence plate reader, at excitation setting of 405 nm and emission settings of 460 nm and 530 nm.
Response is defined as the ratio of background corrected 460 nm emission values/background corrected 530 nm emission values. Cellular activity was defined as percent inhibition of uninhibited ALK5 activity (wells treated with DMSO+TGF-β). The percent inhibition of cellular ALK5 at a given compound concentration is defined as: 100%×[1−(response compound+TGF-β/response DMSO+TGF-β)] where response compound+TGF-β is defined as the activity in the presence of test compound and response DMSO+TGF-β is defined as the uninhibited cellular ALK5 activity. The pIC50 value (negative log of the molar concentration of the compound that produces 50% inhibition) of a test compound is calculated by non-linear least squares curve fitting. pIC50 values, the negative of the log of the IC50, are calculated by non-linear curve fitting of the compound concentrations and percent of inhibition to the standard pIC50 equation.
Where inhibition was measured in multiple experiments the value in Table 2 is an average. N.T. means not tested.

Take `COCCCn1cc2nccc(Nc3ccnc(-c4cc(Cl)ccc4F)c3)c2n1` [Example 34, N-(2-(5-chloro-2-fluorophenyl)pyridin-4-yl)-2-(3-methoxypropyl)-2H-pyrazolo[4,3-b]pyridin-7-amine]: the negative-log IC50 (pIC50) at TGF-β R1 ALK5 and at cellular TGF-β R1 ALK5 was 6.40 in each case.
`Cc1ccc(F)c(-c2cc(Nc3c(F)cnc4cn(C)nc34)c(C)cn2)n1` [Example 131, 6-fluoro-N-(3′-fluoro-5,6′-dimethyl-2,2′-bipyridin-4-yl)-2-methyl-2H-pyrazolo[4,3-b]pyridin-7-amine]: the pIC50 against TGF-β R1 ALK5 is 8.50; against cellular TGF-β R1 ALK5 it was 8.00.
Turning to `COCCn1cc2ncc(F)c(Nc3cc(-c4cc(Cl)ccc4F)ncc3C)c2n1` [Example 16, N-(2-(5-chloro-2-fluorophenyl)-5-methylpyridin-4-yl)-6-fluoro-2-(2-methoxyethyl)-2H-pyrazolo[4,3-b]pyridin-7-amine], the pIC50 against TGF-β R1 ALK5 was 7.50; against cellular TGF-β R1 ALK5, 6.30.
The like results for `Cc1ccc(F)c(-c2cc(Nc3ccnc4cn(C[C@H](C)O)nc34)c(C)cn2)n1` [Example 149, (S)-1-(7-(3′-fluoro-5,6′-dimethyl-2,2′-bipyridin-4-ylamino)-2H-pyrazolo[4,3-b]pyridin-2-yl)propan-2-ol] were, in that order, 8.20 and 7.10.
The like results for `CCn1ncc2nccc(Nc3cc(-c4nc(C)ccc4F)ncc3C)c21` [Example 134, 1-ethyl-N-(3′-fluoro-5,6′-dimethyl-2,2′-bipyridin-4-yl)-1H-pyrazolo[4,3-b]pyridin-7-amine] were, in that order, 8.70 and 7.30.
The like results for `NC(=O)Cn1cc2nccc(Nc3ccnc(-c4cc(Cl)ccc4F)c3)c2n1` [Example 43, 2-(7-(2-(5-chloro-2-fluorophenyl)pyridin-4-ylamino)-2H-pyrazolo[4,3-b]pyridin-2-yl)acetamide] were, in that order, 8.10 and 7.00.
`CCNC(=O)n1ncc2nccc(Nc3nc(-c4cc(F)ccc4F)nc(C)c3C)c21` [Example 92, 7-(2-(2,5-difluorophenyl)-5,6-dimethylpyrimidin-4-ylamino)-N-ethyl-1H-pyrazolo[4,3-b]pyridine-1-carboxamide]: the pIC50 against TGF-β R1 ALK5 is 7.10; against cellular TGF-β R1 ALK5, 6.30.
The like results for `CNC(=O)Cn1ncc2ncc(F)c(Nc3cc(-c4nc(C)ccc4F)ncc3C)c21` [Example 148, 2-(6-fluoro-7-(3′-fluoro-5,6′-dimethyl-2,2′-bipyridin-4-ylamino)-1H-pyrazolo[4,3-b]pyridin-1-yl)-N-methylacetamide] were, in that order, 6.70 and 6.00.
The like results for `Cc1ccc(F)c(-c2cc(Nc3ccnc4cn(CC(O)C(F)(F)F)nc34)ccn2)n1` (centres unmarked) [Example 112, 1,1,1-trifluoro-3-(7-(3′-fluoro-6′-methyl-2,2′-bipyridin-4-ylamino)-2H-pyrazolo[4,3-b]pyridin-2-yl)propan-2-ol] were, in that order, 7.20 and 6.30.
With `CNC(=O)n1ncc2nccc(Nc3nc(-c4cc(Cl)ccc4F)ncc3C)c21` [Example 2, 7-(2-(5-chloro-2-fluorophenyl)-5-methylpyrimidin-4-ylamino)-N-methyl-1H-pyrazolo[4,3-b]pyridine-1-carboxamide], the pIC50 was 8.20 against TGF-β R1 ALK5 and 7.10 against cellular TGF-β R1 ALK5.
On to `CCNC(=O)n1ncc2nccc(Nc3cc(-c4cc(F)ccc4F)ncc3C)c21` [Example 109, 7-(2-(2,5-difluorophenyl)-5-methylpyridin-4-ylamino)-N-ethyl-1H-pyrazolo[4,3-b]pyridine-1-carboxamide], for which the results for the pIC50 at TGF-β R1 ALK5 and against cellular TGF-β R1 ALK5 were 8.80 and 7.70, respectively.
On to `OC[C@H](O)Cn1cc2nccc(Nc3ccnc(-c4cc(Cl)ccc4F)c3)c2n1` [Example 46, (R)-3-(7-(2-(5-chloro-2-fluorophenyl)pyridin-4-ylamino)-2H-pyrazolo[4,3-b]pyridin-2-yl)propane-1,2-diol], for which the pIC50 against TGF-β R1 ALK5 was 7.20; at cellular TGF-β R1 ALK5, 6.50.
Regarding `Cn1cc2nccc(Nc3ccnc(-c4cccc(Cl)c4)c3)c2n1` [Example 48, N-(2-(3-chlorophenyl)pyridin-4-yl)-2-methyl-2H-pyrazolo[4,3-b]pyridin-7-amine], the pIC50 at TGF-β R1 ALK5 and at cellular TGF-β R1 ALK5 was 6.70 in each case.
`Cc1ccc(F)c(-c2cc(Nc3ccnc4cn(C5CC5)nc34)c(C)cn2)n1` [Example 122, 2-cyclopropyl-N-(3′-fluoro-5,6′-dimethyl-2,2′-bipyridin-4-yl)-2H-pyrazolo[4,3-b]pyridin-7-amine]: the pIC50 against TGF-β R1 ALK5 is 8.70; on cellular TGF-β R1 ALK5 it was 8.00.
The like results for `Cc1cnc(-c2cc(Cl)ccc2F)nc1Nc1ccnc2cn[nH]c12` [Example 1, N-(2-(5-chloro-2-fluorophenyl)-5-methylpyrimidin-4-yl)-1H-pyrazolo[4,3-b]pyridin-7-amine] were, in that order, 8.00 and 7.30.
The like results for `Cc1ccc(F)c(-c2cc(Nc3ccnc4cnn(C(C)C)c34)c(C)cn2)n1` [Example 5, N-(3′-fluoro-5,6′-dimethyl-2,2′-bipyridin-4-yl)-1-isopropyl-1H-pyrazolo[4,3-b]pyridin-7-amine] were, in that order, 7.40 and 6.70.
For `Cc1ccc(F)c(-c2cc(Nc3ccnc4cnn(C(C)C)c34)ccn2)n1` [Example 67, N-(3′-fluoro-6′-methyl-2,2′-bipyridin-4-yl)-1-isopropyl-1H-pyrazolo[4,3-b]pyridin-7-amine], the pIC50 on TGF-β R1 ALK5 and against cellular TGF-β R1 ALK5 was 6.90 throughout.
On to `CCNC(=O)N1CCC(Cn2cc3nccc(Nc4ccnc(-c5cc(Cl)ccc5F)c4)c3n2)CC1` [Example 28, 4-((7-(2-(5-chloro-2-fluorophenyl)pyridin-4-ylamino)-2H-pyrazolo[4,3-b]pyridin-2-yl)methyl)-N-ethylpiperidine-1-carboxamide], for which the pIC50 at TGF-β R1 ALK5 and at cellular TGF-β R1 ALK5 was 5.60 in each case.
Turning to `Cc1ccc(F)c(-c2cc(Nc3ccnc4cnn(C[C@H](C)O)c34)c(C)cn2)n1` [Example 152, (S)-1-(7-(3′-fluoro-5,6′-dimethyl-2,2′-bipyridin-4-ylamino)-1H-pyrazolo[4,3-b]pyridin-1-yl)propan-2-ol], the pIC50 at TGF-β R1 ALK5 is 8.10; at cellular TGF-β R1 ALK5 it was 7.00.
For `Cc1cnc(-c2cc(F)ccc2F)cc1Nc1ccnc2cn(CCC(C)(C)O)nc12` [Example 142, 4-(7-(2-(2,5-difluorophenyl)-5-methylpyridin-4-ylamino)-2H-pyrazolo[4,3-b]pyridin-2-yl)-2-methylbutan-2-ol], in that order: 7.60 and 6.80.
For `CN(C)C(=O)n1ncc2nccc(Nc3ccnc(-c4cc(Cl)ccc4F)c3)c21` [Example 39, 7-(2-(5-chloro-2-fluorophenyl)pyridin-4-ylamino)-N,N-dimethyl-1H-pyrazolo[4,3-b]pyridine-1-carboxamide], in that order: 7.00 and 6.50.
The like results for `CNC(=O)Cn1cc2ncc(F)c(Nc3cc(-c4nc(C)ccc4F)ncc3C)c2n1` [Example 147, 2-(6-fluoro-7-(3′-fluoro-5,6′-dimethyl-2,2′-bipyridin-4-ylamino)-2H-pyrazolo[4,3-b]pyridin-2-yl)-N-methylacetamide] were, in that order, 7.50 and 6.70.
